{
  "source": "patent US20040138272A1",
  "about": "“1,4-Substituted cyclohexane derivatives” (priority 2002, published 2004)",
  "key": {"[1]": {"test_system": "NG108-15 neuronal cell line", "assay": "Rapid bioassay of neurite growth in NG108-15 cells", "format": "cell-based", "protocol": "When neurons are placed on inhibitory substrates in tissue culture, the neurons remain rounded. When an effective Rho kinase inhibitor is added to the neurons, the neurons are able to grow neurites on myelin substrates. The time that it takes for neurons to grow neurites after the addition of a Rho kinase inhibitor is about the same as the time that it takes for neurons to grow neurites if the neurons had been plated on growth permissive substrate such as laminin or polylysine, which time is typically 1 to 2 days in cell culture. An assessment of resulting neurite growth can be scored by visual means. If needed, a quantitative assessment of neurite growth can be performed. This involves measuring after a time such as 1 to 2 days the neurite length a) in control cultures where neurons are plated on myelin substrates and left untreated with Rho kinase inhibitor for such time, b) in positive control cultures, wherein for example neurons are plated on polylysine but left untreated with Rho kinase inhibitor for such time, and c) in cultures analogous to a) and b) that are treated with different concentrations of a Rho kinase inhibitor for such time. […] In this assay, NG108 cells are plated on plastic in the presence or absence of the test substance (a Rho kinase inhibitor). […] The relative efficacy can be assessed by fixing the cultures 5 hours after plating, and counting the number of cells that have grown neurites.\nA rapid bioassay is used to determine the effect of a test compounds on the stimulation of neurite growth in vitro. A neuronal cell line, NG108-15 (ATCC HB-12317), is maintained in culture in Dulbecco's minimal essential medium (DMEM) supplemented with 10% fetal bovine serum, Penicillin/Streptomycin and HAT supplement (Gibco/BRL). For the bioassay, the cells are collected by trypsinisation and ressuspended in DMEM supplemented with 5% FBS, Penicillin/Streptomycin, HAT supplement and 0.25 mg/ml cAMP, adjusted to 1.0×10^4 cells/ml. The cells are plated into wells of a 96 well plate at 100 μls (1000 cells)/well. Cells are incubated 4 h at 37° C. and 5% CO2 in presence of small molecules or cethrin at a concentration of 1000 cells per well of a 96-wells plate in a final volume of 100 ul.\nAfter incubation, cells are fixed by adding […] 16% PFA and 5.4 μls 2.5% glutaraldehyde to the media in each well. The wells are stained with cresyl violet 0.05% , 100 μls/well for 15 min. Cells with neurites (length≧one cell body) are counted using an inverted light microscope. The % neurite outgrowth is determined by calculating the number of cells with neurites over the total number of counted cells."}, "[2]": {"biological_target": "T1, human Rho kinase II (ROCK-II (h)) (Homo sapiens, UniProt O75116)", "T1 construct": "purchased", "T1 sequence (O75116 whole entry)": "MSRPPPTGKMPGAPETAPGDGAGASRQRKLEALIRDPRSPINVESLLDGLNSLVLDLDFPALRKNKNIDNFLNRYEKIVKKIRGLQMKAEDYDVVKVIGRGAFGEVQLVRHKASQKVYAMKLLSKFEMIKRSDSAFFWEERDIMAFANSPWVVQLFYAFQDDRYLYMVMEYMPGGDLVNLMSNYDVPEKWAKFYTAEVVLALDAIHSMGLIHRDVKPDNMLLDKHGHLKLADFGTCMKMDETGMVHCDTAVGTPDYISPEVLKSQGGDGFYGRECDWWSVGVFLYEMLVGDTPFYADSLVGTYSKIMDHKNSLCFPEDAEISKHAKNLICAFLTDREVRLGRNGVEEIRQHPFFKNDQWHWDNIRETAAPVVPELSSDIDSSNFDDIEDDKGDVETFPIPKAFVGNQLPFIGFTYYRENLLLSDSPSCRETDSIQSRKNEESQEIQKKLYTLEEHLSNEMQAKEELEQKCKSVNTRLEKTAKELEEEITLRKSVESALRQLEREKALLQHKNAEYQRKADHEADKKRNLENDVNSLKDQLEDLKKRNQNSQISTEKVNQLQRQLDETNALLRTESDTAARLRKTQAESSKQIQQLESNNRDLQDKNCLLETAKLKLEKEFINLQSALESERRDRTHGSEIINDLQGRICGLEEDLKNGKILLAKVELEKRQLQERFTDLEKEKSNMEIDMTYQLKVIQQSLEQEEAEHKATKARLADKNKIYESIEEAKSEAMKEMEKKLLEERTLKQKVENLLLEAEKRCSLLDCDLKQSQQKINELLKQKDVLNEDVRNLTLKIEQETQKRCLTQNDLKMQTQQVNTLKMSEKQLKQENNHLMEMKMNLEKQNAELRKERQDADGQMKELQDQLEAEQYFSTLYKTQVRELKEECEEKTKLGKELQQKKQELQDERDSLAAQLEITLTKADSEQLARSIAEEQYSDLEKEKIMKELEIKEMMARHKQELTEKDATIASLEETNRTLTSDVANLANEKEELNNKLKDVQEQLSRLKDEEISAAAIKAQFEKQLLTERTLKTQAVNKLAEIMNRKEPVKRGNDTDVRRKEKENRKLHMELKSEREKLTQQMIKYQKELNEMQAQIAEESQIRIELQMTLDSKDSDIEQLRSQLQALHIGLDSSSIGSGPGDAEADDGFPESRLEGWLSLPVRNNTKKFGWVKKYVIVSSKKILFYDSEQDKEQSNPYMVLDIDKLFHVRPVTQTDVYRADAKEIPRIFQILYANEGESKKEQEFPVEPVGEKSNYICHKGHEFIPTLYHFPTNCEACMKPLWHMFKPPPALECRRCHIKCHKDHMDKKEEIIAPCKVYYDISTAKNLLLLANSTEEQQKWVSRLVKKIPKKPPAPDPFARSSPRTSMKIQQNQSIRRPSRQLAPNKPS", "assay": "Commercial inhibition assay with recombinant human ROCKII, IC50 curves (FIGS. 8, 9)", "format": "biochemical", "description": "Referring to FIGS. 8 and 9 inhibiton of ROCKII activity and determination of IC50 may also be done throught the use of known (i.e. commercial) inhibition assays that use recombinant human ROCKII."}, "[3]": {"test_system": "retinal ganglion cell axons", "assay": "Axon regeneration after optic nerve crush, intravitreal injection", "format": "in vivo, rat", "conditions": "adult rats, two weeks after crush", "protocol": "To examine the ability of BA-1016 to promote axon regeneration in vivo, the regeneration of retinal ganglion cell axons was examined in the optic nerve after intravitrial injection of BA-1016. In these experiments, BA-1016 was injected at in the vitreous of rats immediately after optic nerve crush that transects all of the retinal ganglion cell (RGC) axons (Lehmann et al, IBID). Two weeks later the animals cholera toxin B subunit was injected in the eye to anterogradelty label the regenerating RGC axons. The next day the animals were killed perfused with saline, and the optic nerves removed for sectioning. Longitudinal sections of the optic nerve were reacted for anti-cholera toxin immunoreactivity to observe the anterogradely labeled fibers.\nRats were anesthetized with isoflorane (2.4%) and the head shaved. […] Retinal ganglion cell axons were labeled by CTB were detected by immunohistochemistry for CTB using a goat anti-choleragenoid (List Biological Labs.), a biotinylated rabbit anti-goat (Vector Labs., Burlingame, Calif.) and DTAF-conjugated streptavidin (Jackson Labs., West Grove, Pa.) as described previously (Lehmann et al IBID)"}},
  "note": "Entries after “also recorded” stand apart in the source; their conditions may differ.",
  "data": [
    {"substance": "(R)-trans-4-(But-3′-en-1′-amino)-N-(4″-pyridyl)cyclohexane Carboxamide Dihydrochloride [BA-1016]", "values": [
      {"measurement": "efficacy of the stereoisomers compared (FIG. 2)", "setting": "[1]; BA-1016 versus BA-1017", "value": "better efficacy"},
      {"measurement": "neurite outgrowth (FIG. 2)", "setting": "[1]; NG108 cells, 3.1 to 31 μM", "value": "promote neurite outgrowth"},
      {"measurement": "IC50", "setting": "[2]", "value": 1.9, "unit": "µM"},
      {"measurement": "distances of axon growth", "setting": "[3]", "value": "exceeded 500 um"},
      {"measurement": "axon regeneration after optic nerve injury (FIG. 5)", "setting": "[3]; Dihydrochloride", "value": "can promote axon regeneration; also recorded: RGC axons were observed"}
    ]}
  ]
}
